The target in assay [1] is T1, uterine OT receptors (Rattus norvegicus, UniProt P70536).
T1 construct: from tissue; host or cells: uterus of DES-treated rats, crude membranes
T1 sequence (P70536 1-388): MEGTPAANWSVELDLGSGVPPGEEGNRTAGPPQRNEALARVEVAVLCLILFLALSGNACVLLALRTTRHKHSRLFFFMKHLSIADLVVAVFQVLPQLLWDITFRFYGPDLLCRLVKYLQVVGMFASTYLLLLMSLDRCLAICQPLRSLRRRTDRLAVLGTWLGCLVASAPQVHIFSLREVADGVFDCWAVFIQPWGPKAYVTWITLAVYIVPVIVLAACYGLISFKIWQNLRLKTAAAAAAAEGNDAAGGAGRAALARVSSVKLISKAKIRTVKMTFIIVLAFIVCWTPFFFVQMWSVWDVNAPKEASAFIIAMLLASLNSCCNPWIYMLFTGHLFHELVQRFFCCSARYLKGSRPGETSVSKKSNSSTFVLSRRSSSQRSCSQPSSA
Kind of assay: [^3 H]OT binding to uterine OT receptors, crude membrane preparation of uteri from DES-treated rats. Particulars: for inhibition at 1 µM: 1 h, @ 1,000 (nM), read-out: [^3 H]OT: percent inhibition of radioligand at the given concentration. The procedure: Competition studies were conducted at equilibrium (60 minutes; 22° C.) using 1 nM [^3 H]OT in the following assay buffer: 50 mM Tris-HCl, 5 mM MgCl2, and 0.1% BSA, pH 7.4.

Assay [2] deals with T2, AVP-V2 sites (Rattus norvegicus, UniProt Q00788).
T2 construct: male rat liver (AVP-V1 sites) or kidney medulla (AVP-V2 sites); from tissue; host or cells: male rat kidney medulla, crude membranes
T2 sequence (Q00788 whole entry): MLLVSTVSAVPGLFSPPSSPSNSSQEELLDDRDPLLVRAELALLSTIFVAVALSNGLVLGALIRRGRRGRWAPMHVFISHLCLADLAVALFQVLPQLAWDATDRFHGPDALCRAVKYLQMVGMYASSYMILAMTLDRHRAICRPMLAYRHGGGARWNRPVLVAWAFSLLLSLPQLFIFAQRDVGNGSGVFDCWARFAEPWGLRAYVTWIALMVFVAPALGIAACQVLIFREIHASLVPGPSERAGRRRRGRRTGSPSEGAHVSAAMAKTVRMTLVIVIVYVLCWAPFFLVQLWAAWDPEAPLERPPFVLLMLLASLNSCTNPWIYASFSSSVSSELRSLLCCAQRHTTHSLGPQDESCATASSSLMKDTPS
Kind of assay: [^3 H]AVP binding to crude membrane preparation of male rat kidney medulla (AVP-V2 sites). The procedure: (§1) Nonspecific binding (5-10% of the total binding) was determined using 10 μM unlabeled AVP, and the binding reaction was terminated by filtration as described above for the [^3 H]OT binding assay.

Assay [3] addresses T3, AVP-V1 sites (Rattus norvegicus, UniProt P30560).
T3 construct: crude membrane preparation of male rat liver (AVP-V1 sites); from tissue; host or cells: male rat liver, crude membranes
Put plainly: [^3 H]AVP binding to crude membrane preparation of male rat liver (AVP-V1 sites). The procedure: as §1

The mark [4] stands for this setting: rat uterus membranes, 1 nM [^3 H]OT, read-out: Receptor Binding Results IC50 (nM) [^3 H]OT.
The mark [5] stands for this setting: Receptor Binding Results IC50 (nM) [^3 H]-AVP-V1.
Setting [6] is: rat kidney medulla membranes, 2 nM [^3 H]AVP, read-out: Receptor Binding Results IC50 (nM) [^3 H]-AVP-V2.
[7] abbreviates: read-out: Receptor Binding Results IC50 (nM) [^3 H]-AVP-V2.
[8] abbreviates: read-out: Receptor Binding Results IC50 (nM) [^3 H]-AVP-V1.

Where two headings read alike, the source gives them in different places. Numbered stars: 1 amine (or outer) side, 2 acyl side, 3 side chain; on linkers, the order of the positions; unused ones are H or OH. Square brackets hold non-standard residues; d marks the D form. Peptide text beside a SMILES is read from it. * marks the point of attachment. X2 = O=C(OCc1ccccc1)N1CCN([*:1])[C@H](C(=O)[*:2])C1; dPiz(1,6-dehydro) = O=C(O)[C@H]1CCC=NN1; d2Nal = N[C@H](Cc1ccc2ccccc2c1)C(=O)O; Pip(4-aza) = O=C(O)[C@@H]1CNCCN1; dNMeF = CN[C@H](Cc1ccccc1)C(=O)O; Pip = O=C(O)[C@@H]1CCCCN1; dPip = O=C(O)[C@H]1CCCCN1; Orn = NCCC[C@H](N)C(=O)O; Cbz = O=C(OCc1ccccc1)*; Boc = CC(C)(C)OC(=O)*; Bn = c1ccc(C*)cc1 Bounds are passed on as bounds.

T3 sequence (P30560 whole entry): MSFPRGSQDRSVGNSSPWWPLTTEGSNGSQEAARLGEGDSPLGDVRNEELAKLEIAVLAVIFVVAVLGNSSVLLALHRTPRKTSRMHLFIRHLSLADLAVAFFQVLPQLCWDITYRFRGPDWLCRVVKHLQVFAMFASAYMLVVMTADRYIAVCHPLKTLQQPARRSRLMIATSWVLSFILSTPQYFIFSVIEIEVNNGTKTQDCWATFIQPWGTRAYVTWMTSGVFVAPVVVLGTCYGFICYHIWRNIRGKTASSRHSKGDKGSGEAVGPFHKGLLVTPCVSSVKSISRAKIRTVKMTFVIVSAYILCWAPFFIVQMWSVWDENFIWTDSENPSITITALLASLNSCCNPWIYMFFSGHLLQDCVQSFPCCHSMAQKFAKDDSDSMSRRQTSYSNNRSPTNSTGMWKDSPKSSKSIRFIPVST

The term IC50 denotes the concentration needed to halve the response being measured. As to `CC[C@H](C)[C@@H]1NC(=O)[C@@H](Cc2c[nH]c3ccccc23)NC(=O)[C@@H]2CCCN2C(=O)[C@@H](Cc2ccccc2)NC(=O)[C@@H]2CNCCN2C(=O)[C@H]2CCCCN2C1=O` [Example 87, c-[D-Tryptophanyl-L-isoleucinyl-D-pipecolyl-L-piperazin-2-yl-D-phenylalanyl-L-prolyl]] (cyclo(I[dPip][Pip(4-aza)][dF]P[dW])), the IC50 in assay [1] (setting [4]) was 62 nM; in assay [2] (Receptor Binding Results IC50 (nM) [^3 H]-AVP-V2) it was greater than 1000 nM; in assay [3] (setting [5]), greater than 10000 nM.

As to `CC[C@H](C)[C@@H]1NC(=O)[C@@H](Cc2ccccc2)NC(=O)[C@@H]2CCCN2C(=O)[C@@H](Cc2ccccc2)NC(=O)[C@H](CC(N)=O)NC(=O)[C@H]([C@@H](C)O)NC1=O` [Example 98, c-[D-Phenylalanyl-L-isoleucyl-L-threonyl-L-asparagyl-D-phenylalanyl-L-prolyl]] (cyclo(ITN[dF]P[dF])), the IC50 in assay [1] (setting [4]) was 7700 nM; in assay [2] (setting [6]), greater than 10000 nM; in assay [3] (setting [5]) it was greater than 10000 nM.

As for `CC[C@H](C)[C@@H]1NC(=O)[C@@H](Cc2ccc3ccccc3c2)NC(=O)[C@@H]2CCCN2C(=O)[C@@H](Cc2ccccc2)N(C)C(=O)[C@H](CCCCN)NC(=O)[C@H]2CCCCN2C1=O` [Example 141, C-[D-2-Napthylalanyl-L-isoleucyl-D-pipecolyl-L-lysyl-D-(N-methyl)phenylalanyl-L-prolyl]] (cyclo([d2Nal]I[dPip]K[dNMeF]P)), the IC50 in assay [1] (setting [4]) came to 45 nM. Moreover, in assay [2] (@ 1,000 (nM)), the “[^3 H]-AVP-V2: percent inhibition of radioligand at the given concentration” value is on record as 78%. Besides, in assay [3], the “[^3 H]-AVP-V1: percent inhibition of radioligand at the given concentration” value came out at 48%.

Consider `CC[C@H](C)[C@@H]1NC(=O)[C@@H](Cc2ccc(OCc3ccccc3)cc2)NC(=O)[C@@H]2CCCN2C(=O)[C@@H](Cc2ccccc2)N(C)C(=O)[C@H](CCCCNC(=O)OC(C)(C)C)NC(=O)[C@H]2CCCCN2C1=O` [Example 142, C-[D-(O-Benzyl)-tyrosinyl-L-isoleucyl-D-pipecolyl-L-(N-t-butyloxycarbonyl)lysyl-D-(N-methyl)phenylalanyl-L-prolyl]] (cyclo(I[dPip]K(Boc)[dNMeF]P[dY](Bn))), for which the inhibition at 1 µM in assay [1] came out at 12%. Further, the 50% inhibitory concentration (IC50) in assay [2] (setting [6]) and in assay [3] (setting [5]) was greater than 10000 nM throughout.

Turning to `CC[C@H](C)[C@@H]1NC(=O)[C@@H](Cc2ccccc2)NC(=O)[C@@H]2CCCN2C(=O)[C@@H](Cc2ccccc2)NC(=O)[C@@H]2CN(C(=O)OCc3ccccc3)CCN2C(=O)[C@H]2CCCCN2C1=O` [Example 77, c-[D-Phenylalanyl-L-isoleucinyl-D-pipecolyl-L-piperazin-2-yl(4-Cbz)-D-phenylalanyl-L-prolyl]] (cyclo(I[dPip][X2][dF]P[dF])), the half-inhibitory concentration (IC50) in assay [1] (setting [4]) is 240 nM; in assay [2] (setting [7]), 12300 nM; in assay [3] (setting [5]), 10000 nM.

For the compound `CC[C@H](C)[C@@H]1NC(=O)[C@@H](Cc2ccccc2)NC(=O)[C@@H]2CCCN2C(=O)[C@@H](Cc2ccccc2)N(C)C(=O)[C@@H]2CCCCN2C(=O)[C@H]2CCC=NN2C1=O` [Example 112, c-[D-Phenylalanyl-L-isoleucyl-D-Δ-piperazyl-L-pipecolyl-N-methyl-D-phenylalanyl-L-prolyl]] (cyclo(I[dPiz(1,6-dehydro)][Pip][dNMeF]P[dF])), the concentration for half-maximal inhibition (IC50) is 14.7 nM in assay [1] (setting [4]), 1170 nM in assay [2] (setting [7]) and 3450 nM in assay [3] (setting [8]).

As for `CC[C@H](C)[C@@H]1NC(=O)[C@@H](Cc2ccccc2)NC(=O)[C@@H]2CCCN2C(=O)[C@@H](Cc2ccccc2)NC(=O)[C@@H]2CCCCN2C(=O)[C@H]2CCCCN2C1=O` [Example 103, c-[D-Phenylalanyl-L-isoleucyl-D-pipecolyl-L-pipecolyl-D-phenylalanyl-L-prolyl]] (cyclo(I[dPip][Pip][dF]P[dF])), the half-maximal inhibitory concentration (IC50) was 370 nM in assay [1] (setting [4]), greater than 10000 nM in assay [2] (setting [6]) and 5690 nM in assay [3] (setting [8]).

On to `CC[C@H](C)[C@@H]1NC(=O)[C@@H](Cc2c[nH]c3ccccc23)NC(=O)[C@@H]2CCCN2C(=O)[C@@H](Cc2ccccc2)N(C)C(=O)[C@H](CCCN)NC(=O)[C@H]2CCC=NN2C1=O` [Example 127, c-[D-Tryptophanyl-L-isoleucyl-D-Δ-piperazyl-L-ornithyl-N-methyl-D-phenylalanyl L-prolyl]] (cyclo(I[dPiz(1,6-dehydro)][Orn][dNMeF]P[dW])), for which the IC50 in assay [1] (Receptor Binding Results IC50 (nM) [^3 H]OT) amounted to 22 nM; in assay [2] (setting [6]) it was 330 nM; in assay [3] (setting [8]), 1600 nM.

`CC[C@H](C)[C@@H]1NC(=O)[C@@H](Cc2ccc(O)cc2)NC(=O)[C@@H]2CCCN2C(=O)[C@@H](Cc2ccccc2)N(C)C(=O)[C@H](CCCCNC(=O)OC(C)(C)C)NC(=O)[C@H]2CCCCN2C1=O` [Example 148, C-[D-Tyrosyl-L-isoleucyl-D-pipecolyl-L-(N-t-butyloxycarbonyl)lysyl-D-(N-methyl)phenylalanyl)-L-prolyl] (cyclo(I[dPip]K(Boc)[dNMeF]P[dY])): in assay [1], the inhibition at 1 µM came out at 50%. Besides, the concentration for half-maximal inhibition (IC50) in assay [2] (setting [6]) and in assay [3] (setting [5]) was greater than 10000 nM in each case.

On to `CC[C@H](C)[C@@H]1NC(=O)[C@@H](Cc2c[nH]c3ccccc23)NC(=O)[C@@H]2CCCN2C(=O)[C@@H](Cc2c[nH]c3ccccc23)NC(=O)[C@H](CCCNC(=O)OCc2ccccc2)NC(=O)[C@H]2CCCCN2C1=O` [Example 36, Cyclo[D-tryptophanyl-L-isoleucyl-D-pipecolyl-L-(carbobenzyloxy)ornithinyl-D-trytophanyl-L-prolyl]] (cyclo(I[dPip][Orn](Cbz)[dW]P[dW])), for which the results for the half-maximal inhibitory concentration (IC50) in assay [1] (setting [4]), in assay [2] (setting [6]) and in assay [3] (setting [5]) were greater than 100 nM, 10000 nM and greater than 10000 nM, respectively.

(Values after patent US5225528A, “Cyclic hexapeptide oxytocin antagonists” (priority 1990, dated 1993).)
